{"source": "paper PMC3269340", "about": "“Pharmacokinetics of memantine in rats and mice” (PLoS Currents, 2012)", "key": {"human PEPT1": {"target": "T1, human PEPT1 (Homo sapiens, UniProt P46059)", "T1 sequence (P46059 1-708)": "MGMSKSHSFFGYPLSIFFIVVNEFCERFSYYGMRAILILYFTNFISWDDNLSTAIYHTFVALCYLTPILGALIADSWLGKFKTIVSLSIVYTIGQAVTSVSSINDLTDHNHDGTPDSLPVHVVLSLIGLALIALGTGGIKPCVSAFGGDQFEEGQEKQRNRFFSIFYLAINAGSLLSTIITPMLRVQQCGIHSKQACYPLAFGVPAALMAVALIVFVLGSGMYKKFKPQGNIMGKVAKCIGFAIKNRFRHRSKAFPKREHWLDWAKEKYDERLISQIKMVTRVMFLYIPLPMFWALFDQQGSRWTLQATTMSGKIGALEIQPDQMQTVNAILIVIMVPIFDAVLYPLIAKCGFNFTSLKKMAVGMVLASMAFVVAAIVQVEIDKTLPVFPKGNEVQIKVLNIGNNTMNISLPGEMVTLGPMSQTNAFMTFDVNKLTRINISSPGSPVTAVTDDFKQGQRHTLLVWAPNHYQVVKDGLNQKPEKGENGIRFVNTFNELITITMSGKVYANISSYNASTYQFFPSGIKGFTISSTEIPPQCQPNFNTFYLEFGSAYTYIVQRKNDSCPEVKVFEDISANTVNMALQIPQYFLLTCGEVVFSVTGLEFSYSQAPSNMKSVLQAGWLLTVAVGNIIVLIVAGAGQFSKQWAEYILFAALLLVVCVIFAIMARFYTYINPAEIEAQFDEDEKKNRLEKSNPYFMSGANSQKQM", "experiment": "Indirect uptake transporter assay, PEPT1", "type": "in vitro ADME", "text": "To determine whether memantine is an inhibitor of the human OATP2B1 (OATP-B), OCT1, OCT2, OAT3, PEPT1, PEPT2 uptake transporters. The standard uptake transporter assay is an indirect, inhibitory-type screening assay, performed with cold test article, which in this case was memantine. It provides information on any interaction (substrate or inhibitor) between selected uptake transporters and memantine that would affect the transport of the reporter compound. […] A radiolabeled reporter substrate is transported into the cells transfected with the selected human uptake transporter, and the inhibitory effect of memantine on the transport of this reporter substrate is measured. Values are presented on a relative scale; 100% defined as transport in the presence of the solvent and without memantine (no inhibition), and 0% defined as transport detected without transporter activity. IC50 is defined as the concentration required to inhibit the transport of the reporter substrate by 50%.\nThe uptake transporter assay was carried out under the conditions described in the table below, with either CHO cells or MDCKII cells stably expressing the respective uptake transporter.\nDuplicate incubations of memantine (0 or DMSO control, 0.41, 1.2, 3.7, 11, 33, 100 and 300 µM) were conducted per concentration on transfected and in parental cells. A reference inhibitor (positive control, duplicate) was incubated in transfected cells.\nCHO cells were cultured in a 1:1 mixture of Dubelcco’s Modified Eagle’s Medium (DMEM, Lonza, Allendale, NJ) and Ham's F-12 (F-12, Lonza, Allendale, NJ) and MDCKII cells in DMEM at 37°C in an atmosphere of 95:5 air:CO2. […]\nAfter the experiment cells were rinsed with 2 x 100µl of Krebs-Henseleit buffer and lysed with 50 µl of 0.1M NaOH. ^3H-estrone-3-sulfate, ^14C-TEA, ^14C-metformin and ^3H-Gly-Sar transport was determined by total radioactivity by transferring an aliquot (35µl) from each well to a vial containing liquid scintillant for analysis."}, "human OCT1": {"target": "T2, human OCT1 (Homo sapiens, UniProt O15245)", "T2 construct": "expressed in transfected cells; host or cells: CHO cells", "T2 sequence (O15245 1-554)": "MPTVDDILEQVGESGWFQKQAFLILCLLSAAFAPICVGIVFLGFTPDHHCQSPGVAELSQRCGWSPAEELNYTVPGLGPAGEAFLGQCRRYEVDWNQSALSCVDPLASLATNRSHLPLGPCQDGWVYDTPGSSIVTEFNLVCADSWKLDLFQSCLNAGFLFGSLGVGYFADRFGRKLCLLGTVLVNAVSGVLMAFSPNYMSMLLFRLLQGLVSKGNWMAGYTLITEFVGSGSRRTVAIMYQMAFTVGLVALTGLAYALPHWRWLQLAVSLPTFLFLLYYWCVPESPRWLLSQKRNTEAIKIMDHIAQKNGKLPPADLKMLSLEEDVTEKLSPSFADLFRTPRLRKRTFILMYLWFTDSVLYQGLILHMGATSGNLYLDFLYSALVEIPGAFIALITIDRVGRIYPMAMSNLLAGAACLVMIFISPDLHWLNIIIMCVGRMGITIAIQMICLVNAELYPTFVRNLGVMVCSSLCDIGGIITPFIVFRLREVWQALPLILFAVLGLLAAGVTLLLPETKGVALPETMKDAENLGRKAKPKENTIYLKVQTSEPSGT", "experiment": "Direct uptake transporter assay, OCT1", "type": "in vitro ADME", "conditions": "for Accumulation in transporter transfected cells: OCT1-transfected cells; for Accumulation in parental cells: parental CHO cells (OCT1 line)", "procedure": "To determine whether memantine is a substrate of the human OATP2B1 (OATP-B), OCT1, OCT2, OAT3, PEPT1, PEPT2 uptake transporters.\nThe potential for memantine to be a substrate of an uptake transporter was determined directly by comparing the uptake of memantine into cells expressing the selected uptake transporter with its uptake into control cells. Memantine was added to transporter-expressing and control cells at two concentrations (PEPT1 and PEPT2 100 and 300 µM, OCT1 and OCT2 50 and 100 µM, OATP2B1 100 and 300 µM), and incubated with cells for 2 and 20 min at 37±1°C (75 µL final incubation volume). […] Incubations were carried out as described in the indirect uptake transporter assays. The concentration of memantine was determined by LC-MS/MS."}}, "data": [{"smiles": "CC12CC3CC(C)(C1)CC(N)(C3)C2", "note": "[memantine]", "values": [{"measurement": "Maximal Inhibition", "setting": "human PEPT1; PEPT1, up to 300 µM", "result": "~62", "unit": "%"}, {"measurement": "IC50", "setting": "human PEPT1; PEPT1-mediated glycylsarcosine transport", "result": 280, "unit": "µM"}, {"measurement": "IC50", "setting": "human PEPT1; PEPT1, probe printed in Table 5: E3S (1 μM), methods and text: Gly-Sar", "result": 281, "unit": "µM"}, {"measurement": "active transport by OCT1", "setting": "human OCT1", "result": "not actively transported"}, {"measurement": "Highest Fold Activation", "setting": "human OCT1; OCT1", "result": "Not observed"}, {"measurement": "Accumulation in transporter transfected cells", "setting": "human OCT1; 2 min, 50 µM", "result": 3818, "unit": "pmol/mg"}, {"measurement": "Accumulation in transporter transfected cells", "setting": "human OCT1; 2 min, 100 µM", "result": 5878, "unit": "pmol/mg"}, {"measurement": "Accumulation in transporter transfected cells", "setting": "human OCT1; 20 min, 50 µM", "result": 5540, "unit": "pmol/mg"}, {"measurement": "Accumulation in transporter transfected cells", "setting": "human OCT1; 20 min, 100 µM", "result": 9190, "unit": "pmol/mg"}, {"measurement": "Accumulation in parental cells", "setting": "human OCT1; 2 min, 50 µM", "result": 3894, "unit": "pmol/mg"}, {"measurement": "Accumulation in parental cells", "setting": "human OCT1; 2 min, 100 µM", "result": 6337, "unit": "pmol/mg"}, {"measurement": "Accumulation in parental cells", "setting": "human OCT1; 20 min, 50 µM", "result": 5672, "unit": "pmol/mg"}, {"measurement": "Accumulation in parental cells", "setting": "human OCT1; 20 min, 100 µM", "result": 9576, "unit": "pmol/mg"}]}]}
